# Experiments:
# [1] = Liver microsome stability, human; assay type: in vitro ADME; conditions: liver microsomes, pH 7.4, Table 2A, read-out: Microsome Stability Human t1/2
# Outline: (§1)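 Test compound incubated with mouse or human liver microsomes and NADPH in 0.1 M potassium phosphate, 1.0 mM EDTA, pH 7.4, with a 60-min no-NADPH control. Samples quenched with ACN containing internal standard at 0, 5, 10, 20, 30 and 60 min, then analysed by LC/MS.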
# [2] = Liver microsome stability, mouse; assay type: in vitro ADME; conditions: liver microsomes, pH 7.4, Table 2A, read-out: Microsome Stability Mouse t1/2
# Outline: as §1
# [3] = Chemical stability in simulated gastric fluid (SGF) without pepsin; assay type: physicochemical; conditions: 50 μM prodrug
# Outline: (§2)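 Incubations used 50 μM compound at 37 °C in phosphate buffered saline, fasted simulated intestinal fluid without pancreatin, or fasted simulated gastric fluid without pepsin.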
# [4] = Plasma stability, mouse plasma; assay type: in vitro ADME; conditions: Table 2A, 37 °C, read-out: Plasma Stability Mouse t1/2
# Outline: (§3)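 Test article, 1 µM final (from 10% DMSO/water), incubated at 37 °C in plasma adjusted to pH 7.4 if needed; samples at 0, 2, 5, 15 and 30 min quenched with ice-cold 80% acetonitrile. Remaining compound by LC-MS/MS; half-life in minutes calculated.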
# [5] = Chemical stability in phosphate buffered saline (PBS); assay type: physicochemical; conditions: 50 μM prodrug
# Outline: as §2
# [6] = Plasma stability, human plasma; assay type: in vitro ADME; conditions: Table 2A, 37 °C, read-out: Plasma Stability Human t1/2
# Outline: as §3
Compound,half-life at 10 μM [1],half-life at 10 μM [2],"Chemical Stability SGF, no enzyme % T0 at 2 hours at 37 °C. ([3]; Table 2A)",half-life [4],Chemical Stability PBS % T0 at 2 hours at 37 °C. ([5]; Table 2A),half-life [6],"Chemical Stability SGF, no enzyme % T0 at 2 hours at 37 °C. ([3]; Table 2B)",Chemical Stability PBS % T0 at 2 hours at 37 °C. ([5]; Table 2B)
"Cl.[H]/N=C(/NC(=O)CCCCCCC/C=C\CCCCCCCC)N(CC(=O)OCCCCCCC)C([2H])([2H])[2H] [Compound 2, (Z)-heptyl 2-(1-trideuteriomethyl-3-oleoylguanidino)acetate Hydrochloride]",6 min,7 min,81%,< 5 min,61%,< 5 min,–,–
Cl.[2H]C([2H])([2H])N(CC(=O)OCC)C(=N)NC(=O)CCCCCCCCCC [Compound 8],< 5 min,< 5 min,117%,< 5 min,0%,< 5 min,95%,0%
Cl.[2H]C([2H])([2H])N(CC(=O)OCCCCCCC)C(=N)NC(=O)CCCCCCCCCCCC [Compound 11],< 5 min,< 5 min,76%,< 5 min,42%,< 5 min,–,–

# — patent publication US11332438B2, “Creatine prodrugs, compositions and methods of use thereof” (Ultragenyx Pharmaceutical Inc., priority 2017, dated 2022)
